From ChEMBL document CHEMBL3774304, “Novel morpholin-3-one fused quinazoline derivatives as EGFR tyrosine kinase inhibitors” (Bioorg Med Chem Lett, 2016)

Legend:
[1] = biological target: T1, Epidermal growth factor receptor (Homo sapiens, UniProt P00533)
Target sequence in this assay (P00533 whole entry): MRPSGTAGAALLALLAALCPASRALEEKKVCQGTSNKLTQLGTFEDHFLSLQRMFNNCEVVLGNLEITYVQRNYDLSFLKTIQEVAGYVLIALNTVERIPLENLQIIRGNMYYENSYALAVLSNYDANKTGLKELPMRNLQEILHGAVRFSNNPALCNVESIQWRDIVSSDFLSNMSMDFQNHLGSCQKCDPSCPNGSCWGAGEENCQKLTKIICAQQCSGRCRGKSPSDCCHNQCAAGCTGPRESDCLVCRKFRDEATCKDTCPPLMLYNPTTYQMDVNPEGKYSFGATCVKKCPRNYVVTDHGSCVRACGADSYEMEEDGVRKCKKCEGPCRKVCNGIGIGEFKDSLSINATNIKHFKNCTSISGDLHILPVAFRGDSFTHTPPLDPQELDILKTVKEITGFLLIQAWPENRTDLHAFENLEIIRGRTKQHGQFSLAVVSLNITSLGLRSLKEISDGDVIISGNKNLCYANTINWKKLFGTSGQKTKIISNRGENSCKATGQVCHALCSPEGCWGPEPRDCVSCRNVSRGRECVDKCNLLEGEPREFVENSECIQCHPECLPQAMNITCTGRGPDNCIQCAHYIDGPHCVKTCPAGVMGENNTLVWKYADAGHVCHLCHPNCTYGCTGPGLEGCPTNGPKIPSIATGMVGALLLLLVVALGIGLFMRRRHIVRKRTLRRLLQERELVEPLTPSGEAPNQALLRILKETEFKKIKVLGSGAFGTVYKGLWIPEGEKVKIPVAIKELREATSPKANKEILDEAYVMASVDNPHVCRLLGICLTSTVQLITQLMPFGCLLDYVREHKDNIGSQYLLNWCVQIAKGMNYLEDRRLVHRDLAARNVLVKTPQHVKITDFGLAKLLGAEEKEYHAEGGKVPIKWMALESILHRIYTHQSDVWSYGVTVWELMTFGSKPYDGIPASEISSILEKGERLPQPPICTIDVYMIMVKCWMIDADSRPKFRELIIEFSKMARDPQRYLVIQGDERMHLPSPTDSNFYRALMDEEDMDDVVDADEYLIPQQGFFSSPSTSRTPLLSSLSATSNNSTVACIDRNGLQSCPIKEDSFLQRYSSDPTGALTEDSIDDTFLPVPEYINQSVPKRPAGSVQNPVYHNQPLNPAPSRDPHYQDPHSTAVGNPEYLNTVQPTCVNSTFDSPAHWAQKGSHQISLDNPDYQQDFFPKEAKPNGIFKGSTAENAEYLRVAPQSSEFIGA
Description: Inhibition of wildtype EGFR (unknown origin) preincubated for 30 mins followed by addition of 2x ATP-substrate mixture measured after 1 hr by Kinase Glo luminescent kinase assay

[2] = biological target: T1, Epidermal growth factor receptor; format: protein assay
Target sequence in this assay (P00533 25-1210 limits assumed, change not shown): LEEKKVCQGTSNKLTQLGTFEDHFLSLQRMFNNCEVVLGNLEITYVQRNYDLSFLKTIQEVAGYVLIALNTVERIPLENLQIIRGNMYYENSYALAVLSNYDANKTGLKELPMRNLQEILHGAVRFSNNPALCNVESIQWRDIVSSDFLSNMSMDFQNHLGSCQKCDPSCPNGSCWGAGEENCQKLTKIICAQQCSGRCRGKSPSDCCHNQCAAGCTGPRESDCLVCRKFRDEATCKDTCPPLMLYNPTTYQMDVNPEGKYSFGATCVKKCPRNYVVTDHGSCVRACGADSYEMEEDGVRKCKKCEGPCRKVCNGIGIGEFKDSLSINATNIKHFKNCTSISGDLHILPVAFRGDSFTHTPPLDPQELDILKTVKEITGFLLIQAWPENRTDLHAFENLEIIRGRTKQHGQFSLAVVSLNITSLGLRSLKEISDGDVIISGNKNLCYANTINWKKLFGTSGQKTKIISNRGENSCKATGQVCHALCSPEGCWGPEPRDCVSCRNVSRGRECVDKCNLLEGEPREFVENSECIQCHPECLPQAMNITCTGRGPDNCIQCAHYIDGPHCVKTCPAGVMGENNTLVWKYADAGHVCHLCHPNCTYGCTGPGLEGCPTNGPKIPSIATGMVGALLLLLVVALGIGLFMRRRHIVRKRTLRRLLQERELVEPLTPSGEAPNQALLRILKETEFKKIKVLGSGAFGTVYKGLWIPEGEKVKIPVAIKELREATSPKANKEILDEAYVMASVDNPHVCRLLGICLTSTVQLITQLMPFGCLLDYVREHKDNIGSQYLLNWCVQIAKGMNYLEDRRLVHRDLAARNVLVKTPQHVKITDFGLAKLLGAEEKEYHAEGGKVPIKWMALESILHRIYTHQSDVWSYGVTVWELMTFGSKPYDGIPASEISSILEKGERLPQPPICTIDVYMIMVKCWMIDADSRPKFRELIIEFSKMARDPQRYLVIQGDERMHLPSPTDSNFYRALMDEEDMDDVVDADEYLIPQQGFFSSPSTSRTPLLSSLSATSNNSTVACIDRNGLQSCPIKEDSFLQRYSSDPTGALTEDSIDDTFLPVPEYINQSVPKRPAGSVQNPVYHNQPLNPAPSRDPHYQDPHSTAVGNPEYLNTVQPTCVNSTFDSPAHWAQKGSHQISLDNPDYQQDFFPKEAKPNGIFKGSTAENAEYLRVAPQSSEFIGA
Description: Inhibition of EGFR-T790M/L858 mutant (unknown origin) preincubated for 30 mins followed by addition of 2x ATP-substrate mixture measured after 1 hr by Kinase Glo luminescent kinase assay

NCI-H358 = test: cells; format: functional, cell-based; conditions: Homo sapiens, NCI-H358, 48 h
Description: Antiproliferative activity against human NCI-H358 cells assessed as viable cells after 48 hrs by CCK8 assay

A549 = test: cells; format: functional, cell-based; conditions: Homo sapiens, A549, 48 h
Description: Antiproliferative activity against human A549 cells assessed as viable cells after 48 hrs by CCK8 assay

IC50 [1] [nM]	also measured	SMILES
211	–	C#Cc1cccc(Nc2ncnc3cc4c(cc23)N(CCCN2CCCCC2)C(=O)CO4)c1
434	–	O=C1COc2cc3ncnc(Nc4ccc(F)cc4)c3cc2N1CCCN1CCOCC1
163	–	Cc1ccc(Nc2ncnc3cc4c(cc23)N(CCCN2CCOCC2)C(=O)CO4)cc1Cl
824	–	O=C1COc2cc3ncnc(Nc4ccc(Br)cc4)c3cc2N1CCCN1CCOCC1
594	–	Cc1ccc(Nc2ncnc3cc4c(cc23)N(CCCN2CCOCC2)C(=O)CO4)cc1
89.6	–	O=C1COc2cc3ncnc(Nc4cccc(Br)c4)c3cc2N1CCCN1CCOCC1
> 1000	–	COc1cccc(Nc2ncnc3cc4c(cc23)N(CCCN2CCOCC2)C(=O)CO4)c1
139	IC50 [2]: 880 nM; IC50 (NCI-H358): 13.5 µM; IC50 (A549): 5.58 µM	C#Cc1cccc(Nc2ncnc3cc4c(cc23)N(CCCN2CCOCC2)C(=O)CO4)c1
63.1	–	O=C1COc2cc3ncnc(Nc4cccc(Cl)c4)c3cc2N1CCCN1CCOCC1
829	–	O=C1COc2cc3ncnc(Nc4cccc(C(F)(F)F)c4)c3cc2N1CCCN1CCOCC1
138	–	O=C1COc2cc3ncnc(Nc4ccc(F)c(Cl)c4)c3cc2N1CCCN1CCCCC1
99	–	O=C1COc2cc3ncnc(Nc4cccc(Br)c4)c3cc2N1CCCN1CCCCC1
519	–	O=C1COc2cc3ncnc(Nc4ccccc4)c3cc2N1CCCN1CCOCC1
245	–	O=C1COc2cc3ncnc(Nc4cccc(F)c4)c3cc2N1CCCN1CCOCC1
> 1000	–	COc1ccc(Nc2ncnc3cc4c(cc23)N(CCCN2CCOCC2)C(=O)CO4)cc1OC
187	–	Cc1cccc(Nc2ncnc3cc4c(cc23)N(CCCN2CCOCC2)C(=O)CO4)c1
116	–	O=C1COc2cc3ncnc(Nc4cccc(Cl)c4)c3cc2N1CCCN1CCCCC1
53.1	IC50 [2]: 336 nM; IC50 (NCI-H358): 13.5 µM; IC50 (A549): 7.51 µM	O=C1COc2cc3ncnc(Nc4ccc(F)c(Cl)c4)c3cc2N1CCCN1CCOCC1
456	–	Cc1cccc(Nc2ncnc3cc4c(cc23)N(CCCN2CCCCC2)C(=O)CO4)c1
354	–	O=C1COc2cc3ncnc(Nc4ccc(Cl)cc4)c3cc2N1CCCN1CCOCC1
